The source of these data is patent publication US9320281B2, “Readied in situ glyphosate herbicide soluble powder composition and its preparation process” (ALLVET QUIMICA INDUSTRIAL LTDA., priority 2011, dated 2016).

One series concerns daphnia. Briefly: Acute daphnia immobilization EC50, OECD 202. It counts as in vivo. The following applies: for times less toxic for daphnia compared to a fatty amine ethoxylate: in vivo. An excerpt:
(§1) The low toxicity of coconut fatty acid copolymers with glycerol is illustrated by the following table

The test system of a further series is rabbits. Description: Eye irritation rabbits. Conditions: rabbit, in vivo.
Another series relates to Fish. Briefly: Fish toxicology LC50, OECD 203, 96 h. It counts as in vivo. Conditions: for Fish toxicology LC50: OECD 203, 96 h; for times less toxic for fish compared to a fatty amine ethoxylate: in vivo.
Source text: as §1

The next series has as its system variety of weeds. Briefly: Extensive field tests in Brazil and South Africa versus standard 360 g/liter liquid formulation. Format: in vivo. The following applies: surfactant in the glyphosate formulation. As to the method:
The product was extensively tested on the field. During eighteen months the soluble powder formulation was applied in different dosages on a variety of weeds in the state of Paraná, Brazil and in the province of […] in the Republic of South Africa and the results were compared with those obtained applying the standard product 360 g/liter liquid formulation side by side on the same fields.
More than one hundred field tests of the Soluble Powder were carried out. Each test consisted in applying different dosages of glyphosate acid on the field using the Soluble Powder object of the present invention and similar dosages of the standard 360 g/liter liquid formulation and comparing the results obtained side by side on the same field. Phytotoxicity of the weeds was measured by sampling and visual counting. All results were recorded and photographs taken before and after the tests.

A short description of series [1]: 1,4-Dioxane content (carcinogen). An excerpt:
The inevitable presence of 1,4-dioxane in all ethoxylated products is the reason why all ethoxylates including coco amide ethoxylates were excluded from consideration in the product of the present invention.

A further series deals with rats. Description: Acute oral toxicology LD50 in rats. Format: in vivo.
For series [2] the following is noted: cited from earlier work.

Where “and” joins values, the source holds several entries; their conditions need not be identical. Equal values may be shown once.

On to “coconut oil polymer with glyceryl and phthalic anhydride”, for which the Biodegradability in the series “Biodegradability” was >42%.

For the molecule Coco amide propyl amine oxide, the “times less toxic for daphnia compared to a fatty amine ethoxylate” value in the series with daphnia is listed as 100 times. Besides, the Eye irritation rabbits entry with rabbits is “Irritant”. Also, in the series with Fish, the “Fish toxicology LC50” value is 6 mg/l and >6 mg/l; the “times less toxic for fish compared to a fatty amine ethoxylate” value was determined as 15 times. The Biodegradability in “Biodegradability” is listed as >90%.

On to coco amide propyl betaine, for which the “times less toxic for daphnia compared to a fatty amine ethoxylate” value in the series with daphnia is on record as 100 times. Also, the “efficiency as surfactant compared with coco amide propyl amine oxide” value with variety of weeds is “just as efficient”. Also, the “times less toxic for fish compared to a fatty amine ethoxylate” value with Fish worked out at 15 times.

As for “Fatty amine ethoxylate [reference compound]”, the “Acute daphnia immobilization EC50” value in the series with daphnia (OECD 202) turned out to be 0.46 µg/mL. Further, in series [1], the “1,4-Dioxane content (carcinogen)” value was “Up to 25,000 ppm”. In addition, the “Acute oral toxicology LD50” value in the series on rats is 200-2000 mg/kg. In addition, the Eye irritation rabbits entry in the series with rabbits was “Serious eye”. Further, the “Fish toxicology LC50” value in the series with Fish was 0.42 mg/l. The Biodegradability in “Biodegradability” is given as <60%.

Take `O=C(O)CNCP(=O)(O)O` [Glyphosate, N-(phosphonomethyl)-glycine]: the solubility in water result in series [2] was “insoluble”.
